# Source: patent publication US9896487B2, “Amyloidosis-inhibiting polypeptides and their use” (UNIVERSITY OF WASHINGTON THROUGH ITS CENTER FOR …, priority 2013, dated 2018)
# Entries after “also recorded” stand apart in the source; their conditions may differ. Where a SMILES comes first, the peptide text is derived from it. [ ]: non-standard residue; d: D form.
# What was measured:
# transthyretin (TTR) = molecular target: T1, transthyretin (TTR) (Homo sapiens, UniProt P02766); assay: TTR fibrillization assay (Congo red binding); assay type: biochemical; details: for inhibition of the remaining TTR aggregation: peptide added to 24-hour pre-incubated, toxic TTR, versus aggregation in the absence of inhibitor
# T1 construct: purchased Lee Biosolutions, St. Louis Mo; 496-11
# Protocol: Aliqouts of transthyretin (TTR) (496-11; Lee Biosolutions, St. Louis Mo.) were made from a 1 mg/mL solution 20 mM ammonium carbonate, pH 8. Aliquots were lyophilized and stored at −18° C. Prior to use, TTR was dissolved to 80 μM (monomer) in acetate buffer (50 mM potassium acetate, 100 mM potassium chloride pH 4.5) and sonicated for 10 minutes. The stock solution was centrifuged before use. Peptide designs were added to stock TTR to a final TTR concentration of 40 μM (monomer) in acetate buffer (pH 4.5) in 500 μL microcentrifuge tubes, which were incubated at 37° C. Periodically, samples were collected from the TTR:peptide mixture by briefly centrifuging, and then carefully pipetting the solution up and down prior to withdrawing a 10 μL sample and diluting it in 190 μL of 10 μM Congo red in an individual well of a 96-well assay plate. Each measurement was performed in triplicate. Absorbance measurements were taken at 477 and 540 nm. Relative Congo red binding was determined using the method of Klunk et al. using the relationship: rCb=(Abs540/25,295)−(Abs477/46,306) (40). All datapoints were normalized to the value recorded for TTR alone pH 4.5 at 48 hrs.
# (§1) The “control” designs were tested as general inhibitors against the Amyloid β 1-42 peptide (Aβ) (panel A), the islet amylin polypeptide (IAPP, or amylin, which is implicated in type 2 diabetes) (panel B), and transthyretin (TTR) (panel C) amyloidosis (FIG. 6). […] As described in Example 1, a Thioflavin T (ThT) fluorescence assay was used to monitor Aβ and IAPP aggregation. A Congo Red dye-binding assay was used to monitor TTR fibrillization. For inhibition against Aβ, peptides were co-incubated at 4-fold excess of Aβ at RT in neutral pH buffer containing ThT. Note that the results for α1 differ somewhat from what are included in Example 1 because the assay conditions were altered slightly to slow the process down to favor oligomerization of Aβ (rather than fibril elongation) by lowering the temperature to 25° C. […] For inhibition against IAPP, peptides were co-incubated at 8-fold excess of IAPP at 37° C. in neutral pH buffer containing 20 μM ThT. For inhibition against TTR, peptides were co-incubated at 10-fold excess of monomeric TTR.
# Aβ (1-42) = molecular target: T2, Aβ (1-42) (Homo sapiens, UniProt P05067); assay: Aβ fibrillization assay (Thioflavin T fluorescence); assay type: biochemical; details: for time of aggregation at which the inhibitory effect is exerted: 10:1 excess, 37° C., ThT; for inhibition of Aβ fibril formation: co-incubated in 10:1 excess (100 μM peptide, 10 μM Aβ), pH 7.4, 37° C., measured at 22 hours; for inhibition of aggregation of pre-aggregated, toxic Aβ: designs added to Aβ pre-aggregated for 6 hrs, versus aggregation in the absence of inhibitor
# T2 construct: Aβ (1-42) (AMYD-002; CPC Scientific, Sunnyvale Calif.); purchased CPC Scientific, Sunnyvale Calif; AMYD-002
# Protocol: Similarly, the designs were co-incubated (in 10:1 excess) with Aβ at pH 7.4 and followed fibril formation with ThT fluorescence changes upon binding at 37° C. (FIG. 2c). As observed for TTR, both α1 and α3 inhibited aggregation. Again α1 was more efficient, inhibiting approximately 87% of fibril formation compared with 66% for α3, when measured after the reaction stabilized at 22 hours. […] The 37° C. studies are reported here, though, for comparison with TTR, which aggregates very slowly at 25° C.
# Aβ (1-42) (AMYD-002; CPC Scientific, Sunnyvale Calif.) was stored as 2 mg/mL stock in hexafluoroisopropanol (HFIP) at −18° C. Prior to use, the stock solution was thawed, an aliquot taken and the HFIP was removed under a gentle stream of air. A 1 mg/mL stock solution of Aβ was made in 5 mM NaOH and sonicated for 5-10 minutes. The stock was filtered through a 0.22 μm cellulose filter (Costar Spin-X; Corning Inc, NY). The concentration of stock Aβ was determined by first diluting the stock 1:50 in 5 mM NaOH then taking the absorbance at 220 nm (ε220=50,000 cm^−1 M^−1). Aliquots of the NaOH stock were placed in separate wells of a 96-well black-walled fluorescence plate (Nunc) and immediately diluted in PBS (11 mM phosphate) containing 20 μM Thioflavin T (ThT) to give 150 μL of 10 μM Aβ at pH 7.5. Peptide inhibitors were added directly to 10 μM Aβ samples from concentrated aqueous stocks. Covered plates were incubated at 37° C. and were periodically removed for fluorescence measurements. ThT fluorescence was measured at λex=450 nm and λem=480 nm using a Tecan Safire2 plate reader.
# as §1
# TTR = molecular target: T3, TTR (Homo sapiens, UniProt P02766); assay: Immobilized designs on agarose beads, binding of TTR from solution (dot blot); details: immobilized design; for binding of pre-incubated, toxic oligomer-containing TTR: TTR pre-incubated at low pH for 24 hrs
# T3 construct: purchased Lee Biosolutions, St. Louis Mo; 496-11
# Aβ = molecular target: T4, Aβ (Homo sapiens, UniProt P05067); assay: Immobilized designs on agarose beads, binding of Aβ from solution (dot blot); details: immobilized design; for binding of pre-aggregated, toxic Aβ: Aβ pre-aggregated for 6 hrs
# T4 construct: Aβ (1-42) (AMYD-002; CPC Scientific, Sunnyvale Calif.); purchased CPC Scientific, Sunnyvale Calif; AMYD-002
# [1] = test system: Aβ, IAPP and TTR amyloidosis / toxic oligomer; assay: Inhibitory activity summary: inhibition of aggregation and/or binding of toxic oligomer; assay type: biochemical
# Protocol: In addition, FIG. 5 contains ‘control’ designs aimed at reverse engineering the α1 design, which is presented in more detail in Example 3. […] These designs are both linear and cyclic peptides designed to be hairpins.
# The “control” designs were tested as general inhibitors against the Amyloid β 1-42 peptide (Aβ) (panel A), the islet amylin polypeptide (IAPP, or amylin, which is implicated in type 2 diabetes) (panel B), and transthyretin (TTR) (panel C) amyloidosis (FIG. 6). […] As described in Example 1, a Thioflavin T (ThT) fluorescence assay was used to monitor Aβ and IAPP aggregation. A Congo Red dye-binding assay was used to monitor TTR fibrillization. For inhibition against Aβ, peptides were co-incubated at 4-fold excess of Aβ at RT in neutral pH buffer containing ThT. […] For inhibition against IAPP, peptides were co-incubated at 8-fold excess of IAPP at 37° C. in neutral pH buffer containing 20 μM ThT. For inhibition against TTR, peptides were co-incubated at 10-fold excess of monomeric TTR.
# The data in FIG. 6 were normalized to ThT fluorescence of the negative (uninhibited) control (black squares). Inhibition traces are ordered vertically according to sequence identity to α1 (see Table 1). Sigmoidal fits to data are included. Controls are identical throughout a single panel, and traces for inhibition samples are colored while the uninhibited aggregation profiles are in black.
# [2] = Solubility and solution behaviour of the designs; details: for solubility: aqueous solution-phase experiments
# [3] = test system: human neuroblastoma cell line SH-SY5Y
# Protocol: The toxicity of aggregates was tested against the human neuroblastoma cell line SH-SY5Y in an MTT cell viability assay. The human neuroblastoma cell line SH-SY5Y (CRL-226; American Type Culture Collection) was grown in 75 cm^2 flasks in 1:1 DMEM/F12 (CellGro) supplemented with 10% FBS and 50 units/mL penicillin/50 μg/mL streptomycin (complete media), and incubated at 37° C. in humidified 5% CO2 environment. Cells were routinely passaged when they reached 90% confluence by addition of trypsin (Gibco) and replated at a ratio of 1:10 in complete media. Cells were plated to a density of 25,000 cells/well in a 96-well plate (100 μL/well) and allowed to attach overnight. The cell assay was performed as described by Reixach et al. (41).
# T2 sequence (P05067 672-713 limits assumed): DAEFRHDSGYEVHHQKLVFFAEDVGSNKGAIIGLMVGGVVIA
# T4 sequence (P05067 672-713 limits assumed): as above
Molecule,inhibition of the remaining TTR aggregation (transthyretin (TTR)) [%],"percentage inhibition of TTR aggregation (transthyretin (TTR); peptide co-incubated in excess 20:1 (800 μM) with 40 μM TTR monomer, pH 4.5, 37° C., after 48 hours, relative to TTR alone at low pH) [%]","inhibition of Aβ aggregation at 4-fold excess (Aβ (1-42); 4-fold excess of peptide, 25° C. (RT), neutral pH buffer with ThT, listed as α1)",time of aggregation at which the inhibitory effect is exerted (Aβ (1-42)),inhibition of Aβ fibril formation (Aβ (1-42)),"inhibition of aggregation of pre-aggregated, toxic Aβ (Aβ (1-42)) [%]","binding of native, tetrameric TTR (TTR)","binding of pre-incubated, toxic oligomer-containing TTR (TTR; listed as α1)","binding of pre-aggregated, toxic Aβ (Aβ; listed as α1)","binding of fresh, monomeric Aβ (Aβ; fresh (0 h) Aβ)",Inhibits Aggregation and/or binds oligomer? [1],"inhibition at 800 µM (transthyretin (TTR); peptide co-incubated in excess 20:1 (800 μM) with 40 μM TTR monomer, pH 4.5, 37° C., after 48 hours, relative to TTR alone at low pH, read-out: percentage inhibition of TTR aggregation) [%]","binding of pre-incubated, toxic oligomer-containing TTR (TTR)","binding of pre-aggregated, toxic Aβ (Aβ)","association state in solution ([2]; NMR conditions: very high sample concentrations, 50 mM potassium phosphate, 100 mM KCl pH 5.8)",solubility [2],viability of treated cells [3]
Ac-RGEmNiSwMNEYSGWtMnLkMGR-NH2 [peptide #1],81,72,essentially completely abolishes aggregation; also recorded: quenches Aβ aggregation,approximately 6 hrs,approximately 87%,97,did not bind,to a greater extent than the rc and β controls; also recorded: more strongly bound,"preferentially bound the pre-aggregated, toxic form of Aβ",did not bind,demonstrate activity and yes,,,,,,
CSCC[C@@H]1NC(=O)[C@@H]([C@H](C)O)NC(=O)[C@H](Cc2c[nH]c3ccccc23)NC(=O)[C@@H](C)NC(=O)[C@H](C)NC(=O)[C@H](C)NC(=O)[C@H](C)NC(=O)[C@H](CC(N)=O)NC(=O)[C@H]([C@@H](C)O)NC(=O)[C@@H](Cc2c[nH]c3ccccc23)NC(=O)[C@H](CO)NC(=O)[C@@H](CCCCN)NC(=O)[C@H](CCC(N)=O)NC(=O)[C@@H](CCC(N)=O)NC(=O)[C@H](CCCCN)NC(=O)[C@H](CC(N)=O)NC(=O)[C@H]2CCCN2C(=O)[C@H](CCC(=O)O)NC(=O)[C@@H](CCCCN)NC(=O)[C@H](CC(C)C)NC(=O)[C@@H](CCC(N)=O)NC1=O [α3] (cyclo([dQ]Q[dK]S[dW]TNAAA[dA]W[dT]M[dQ]L[dK]E[dP]NK)),77,,,approximately 6 hrs,66%,96,,,,,,56,to a greater extent than the rc and β controls; also recorded: more strongly bound,"bound pre-aggregated, toxic Aβ preferentially",well-behaved monomers,soluble,
Aβ: β-amyloid peptide 1-42 (AMYD-002; CPC Scientific),,,,,,,,,,,,,,,,,less than 50%
CSCC[C@H](NC(=O)[C@@H](CCCCN)NC(=O)[C@H](CS)NC(=O)[C@@H](CC(N)=O)NC(=O)[C@H](CCSC)NC(=O)[C@H](NC(=O)[C@H](Cc1c[nH]c2ccccc12)NC(=O)CNC(=O)[C@H](Cc1ccc(O)cc1)NC(=O)[C@H](Cc1ccc(O)cc1)NC(=O)[C@H](CCC(=O)O)NC(=O)[C@H](CC(N)=O)NC(=O)[C@H](CCSC)NC(=O)[C@@H](Cc1c[nH]c2ccccc12)NC(=O)[C@H](Cc1ccccc1)NC(=O)[C@@H](Cc1ccc(O)cc1)NC(=O)[C@H](CC(N)=O)NC(=O)[C@@H](CCSC)NC(=O)[C@H](CCC(=O)O)NC(=O)CNC(=O)[C@H](CCCNC(=N)N)NC(C)=O)[C@H](C)O)C(=O)NCC(=O)N[C@@H](CCCNC(=N)N)C(N)=O [α2] (Ac-RGE[dM]N[dY]F[dW]MNEYYGW[dT]M[dN]C[dK]MGR-NH2),,,,,,,,,,,,,to a greater extent than the rc and β controls; also recorded: more strongly bound,"bound pre-aggregated, toxic Aβ preferentially",,sparingly soluble; also recorded: not soluble enough for NMR,
